The values that follow come from US4942234A, “Isothiazolone 1,1-dioxide derivatives with psychotropic activity” (American Home Products Corporation, priority 1989, dated 1990).

The target in experiment [1] is limbic D-2 dopamine receptor (Rattus norvegicus, UniProt P61169). Nature of the experiment: inhibition of limbic D-2 dopamine receptor binding (3H-spiroperidol). To be noted: read-out: Limbic D-2 Binding Inhibition, % inhibition at 1 μM.
Procedure: This in vitro assay measures the ability of the compounds tested to bind to the dopamine receptor sites.
The assay is carried out as follows:
Several rats are decapitated and the brains are rapidly removed. Limbic brain tissue (nucleus accumbens, septal area, olfactory tubercle) is dissected and homogenized on ice in 9 volumes of buffer (50 mM Tris-HCl, 120 mM NaCl, 5 mM KCl, 1 mM CaCl2, 1 mM MgCl2, 0.1% L-ascorbic acid, 10 μM pargyline HCl, pH 7.1) using a Polytron homogenizer at setting 5 for three 15-sec bursts. The homogenate is then diluted 4-fold with buffer and centrifuged at 30,000×g for 20 min, and the supernatant is discarded. The pellet is resuspended in the same volume of buffer and recentrifuged as before, again discarding the supernatant. This pellet is then resuspended in the same volume of buffer used in the homogenization, and the protein content of this preparation is assayed by the Lowry method. The homogenate is stored frozen at -70° C. until use.
At the end of the incubation, 3 ml of cold 50 mM Tris-HCl, pH 7.7, are added to each tube, and the contents are rapidly vacuum-filtered through Whatman GF/B glass-fiber filters. The filters are then rapidly washed 3 times with 3 ml of the same buffer, placed in scintillation vials, and shaken for 15 min with 10 ml of Hydrofluor (National Diagnostics) scintillation cocktail. The vials are then counted in a Packard 460CD scintillation counter.
Specific binding is defined as total binding less binding in the presence of 1 μM (+)butaclamol. Binding in the presence of various concentrations of test drug is expressed as a per cent of specific binding when no drug is present.
Experiment [2] relates to conditioned avoidance response. Nature of the experiment: conditioned avoidance (shelf-jump response) test. It is filed as in vivo, male CD rats. To be noted: rats; for Active at: i.p. As for the experimental part: A test designed to determine the potential antipsychotic activity of the compounds of the invention is the conditioned avoidance (shelf-jump response) test.
This test is carried out as follows:
Male CD rats (Charles River) maintained at approximately 400-450 gm body weight are used. […] A moveable wall, controlled by a motor, determines whether the rat has access to the shelf at any time during the experiment. The experimental chamber also contains a house light and sonalert. A steel grid floor in the main chamber is wired for presentation of electric shock. Each trial consists of a fifteen-second warning tone (conditioned stimulus), continuing for an additional fifteen seconds accompanied by electric shock (unconditioned stimulus). A response (jumping onto the exposed shelf of the upper chamber) occurring during the initial fifteen-second warning tone is considered an avoidance response, while a response occurring during shock delivery is considered an escape response. Trials are presented on a fixed interval schedule of one minute. The session consists of thirty-six trials. Animals are run twice weekly with control sessions always preceding a drug run, and with at least one day intervening. Compounds are administered i.p. or p.o. at appropriate pre-treatment times to a minimum of five rats at each dose level over a range of doses.
The following experimental parameters are recorded by computer: (1) the number of avoidance responses, (2) the number of escape responses, and (3) the number of trials in which no response occurred.
Response counts are summed over all subjects at a given dose. […] This number is expressed as a percentage of the total trials. Control performance is arbitrarily assigned a value of 100% for avoidance responding and the dose calculated to produce a 50% block in avoidance responding (AB50) is obtained from a dose-effect regression line fitted by the method of least squares. Potential antipsychotic compounds suppress avoidance responding and increase escape responding.

For experiment [3], the system named is apomorphine-induced stereotyped behavior (in vivo dopamine receptor blocking activity). To be noted: i.p., mice; inactivity taken as low potential for extrapyramidal side effects.

Counter-ions that a name gives are not always drawn.

Chain of limbic D-2 dopamine receptor (P61169 whole entry): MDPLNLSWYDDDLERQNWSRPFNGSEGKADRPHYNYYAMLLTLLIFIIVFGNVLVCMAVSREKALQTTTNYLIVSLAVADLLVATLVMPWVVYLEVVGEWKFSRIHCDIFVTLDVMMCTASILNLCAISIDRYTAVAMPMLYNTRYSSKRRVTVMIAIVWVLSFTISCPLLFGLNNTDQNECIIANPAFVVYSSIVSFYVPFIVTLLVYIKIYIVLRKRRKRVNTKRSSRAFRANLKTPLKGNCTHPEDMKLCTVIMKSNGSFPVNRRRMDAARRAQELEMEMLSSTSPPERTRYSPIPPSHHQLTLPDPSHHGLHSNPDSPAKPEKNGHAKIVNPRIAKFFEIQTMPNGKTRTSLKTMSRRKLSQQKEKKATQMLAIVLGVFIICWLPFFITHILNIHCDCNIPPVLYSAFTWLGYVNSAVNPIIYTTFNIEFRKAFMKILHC

In the case of `O=c1c2ccccc2[s+]([O-])n1CCCCc1ccncc1` (stereo not drawn) [Example 7, 2-[4-(4-Pyridinyl)butyl]-1,2-benzisothiazol-3(2H)-one 1-oxide, hydrochloride], in experiment [1], the inhibition at 1 µM was determined as 14%. For the compound `Cl.O=C1C2C3CCC(O3)C2S(=O)(=O)N1CCCCc1ccncc1` (stereo not drawn) [Example 1, Hexahydro-2-[4-(4-pyridinyl)butyl]-4,7-epoxy-1,2-benzisothiazol-3(2H)-one 1,1-dioxide, hydrochloride], the Active at in experiment [2] came out at 40 mg/kg. In addition, the inhibition at 1 µM in experiment [1] turned out to be 3%. Consider `O=C1C2C3CCC(O3)C2S(=O)(=O)N1CCCCC1CCN(c2ncccn2)CC1` (stereo not drawn) [Example 2, Hexahydro-2-[4-[1-(2-pyrimidinyl)-4-piperidinyl]butyl]-4,7-epoxy-1,2-benzisothiazol-3(2H)-one 1,1-dioxide, hydrochloride, monohydrate], for which the inhibition at 1 µM in experiment [1] was 6%. On to `Cl.O=C1C2C3C=CC(C3)C2S(=O)(=O)N1CCCCc1ccncc1` (stereo not drawn) [Example 3, 3a,4,7,7a-Tetrahydro-2-[4-(4-pyridinyl)butyl]-4,7-methano-1,2-benzisothiazol-3(2H)-one 1,1-dioxide, hydrochloride], for which the Active at in experiment [2] amounted to 40 mg/kg. Besides, the inhibition at 1 µM in experiment [1] came out at 1%.

Turning to `O=C1C2C3CCC(O3)C2S(=O)(=O)N1CCCCC1CCN(c2cncc(Cl)n2)CC1` (stereo not drawn) [Example 4, Hexahydro-2-[4-[1-(6-chloro-2-pyrazinyl)-4-piperidinyl]butyl]-4,7-epoxy-1,2-benzisothiazol-3(2H)-one 1,1-dioxide, hydrochloride, hydrate], in experiment [1], the inhibition at 1 µM amounted to 7%.

Consider `O=C1CC2(CCCC2)CC(=O)N1CCCCN1CCN(c2ncccn2)CC1` [Buspirone, 8-[4-[4-(2-pyrimidinyl)-1-piperazinyl]butyl]-8-azaspiro[4.5]decane-7,9-dione, reference compound], for which the “activity in apomorphine-induced stereotyped behavior assay” value in experiment [3] is “inactive”. In experiment [2] (Rattus norvegicus, ip, read-out: AB50 (50% block in avoidance responding)), the ED50 is 9.44 mg/kg. For the compound `CC1=C(C)CC2C(C1)C(=O)N(CCCCc1ccncc1)S2(=O)=O.Cl` (stereo not drawn) [Example 5, 3a,4,7,7a-Tetrahydro-5,6-dimethyl-2-[4-(4-pyridinyl)butyl]-1,2-benzisothiazol-3(2H)-one 1,1-dioxide, hydrochloride], the Active at in experiment [2] was 40 mg/kg. Moreover, in experiment [1], the inhibition at 1 µM was determined as 56%. On to `O=C1C2C3CCC(O3)C2S(=O)(=O)N1CCCCC1CCN(c2cnccn2)CC1` (stereo not drawn) [Example 6, Hexahydro-2-[4-[1-(2-pyrazinyl)-4-piperidinyl]butyl]-4,7-epoxy-1,2-benzisothiazol-3(2H)-one 1,1-dioxide, hydrochloride, hemihydrate], for which the inhibition at 1 µM in experiment [1] amounted to 6%.
